Data published in US20250073138A1, “Lipid-based nanoparticles for enhancing percutaneous absorption and manufacturing method thereof” (COSMECCA KOREA CO., LTD., priority 2023, published 2025).

System: HaCaT, a human keratinocyte cell line
Assay: Live/dead fluorescence staining cytotoxicity
Type: cell-based
Conditions: treated at different concentrations for 24 h, calcein-AM / ethidium homodimer
Description: First, HaCaT, a human keratinocyte cell line, was treated with tannic acid, TAMA, and TAMA-introduced nanoparticles (TANV) at different concentrations for 24 h. Thereafter, calcein-acetoxymethyl ester (calcein-AM), which stains viable cells, and ethidium homodimer, which stains dead cells, were treated simultaneously, and then washed twice with the PBS buffer solution to obtain images of viable and dead cells through fluorescence microscopy.

In the case of `O=C(OC[C@H]1O[C@@H](OC(=O)c2cc(O)c(O)c(OC(=O)c3cc(O)c(O)c(O)c3)c2)[C@H](OC(=O)c2cc(O)c(O)c(OC(=O)c3cc(O)c(O)c(O)c3)c2)[C@@H](OC(=O)c2cc(O)c(O)c(OC(=O)c3cc(O)c(O)c(O)c3)c2)[C@@H]1OC(=O)c1cc(O)c(O)c(OC(=O)c2cc(O)c(O)c(O)c2)c1)c1cc(O)c(O)c(OC(=O)c2cc(O)c(O)c(O)c2)c1` [tannic acid], the “cytotoxicity (live/dead assay)” value is reported as “cytotoxicity and death occurred significantly”.

With tannic acid-maleimide [TAMA] the “cytotoxicity (live/dead assay)” value was “a slight level of cytotoxicity”.
